{
  "source": "patent US20130143886A1",
  "about": "“METHODS FOR PRESERVING AND/OR INCREASING RENAL FUNCTION USING XANTHINE OXIDOREDUCTASE INHIBITORS” (priority 2006, published 2013)",
  "type_in_all_cases": "in vivo, Male Wistar rats",
  "key": {"remnant kidney (RK) rats [1]": {"test_system": "remnant kidney (RK) rats", "assay": "Body weight, food and water intake in remnant kidney rats", "conditions": "RK rats (RK + Fx or RK + OA group)", "protocol": "Male Wistar rats (295-340 g) were used to produce rats with remnant kidney (RK) as follows. […] Rats were then assigned to one of four treatment groups: Group 1, RK control rats (n=7); Group 2, RK+febuxostat (Fx) rats (n=8); Group 3, RK+oxonic acid (OA) rats (n=6); and Group 4, RK+OA+Fx (n=10). Oxonic acid (OA) (Sigma-Aldrich, St Louis Mo., USA), administered at 750 mg/kg body weight daily by oral gavage, was given starting the day after the ⅚ nephrectomy. Beginning immediately following the surgery, febuxostat was administered in drinking water at 30 mg/L (3-4 mg/kg/day), whereas the respective controls received only drinking water (with 3.5 mg/L of NaCl added to keep an equivalent salt concentration to the Fx-containing water). All groups were treated for four weeks. Body weight (beginning just before surgery) and food and water intakes were measured daily. Systolic blood pressure, measured in conscious rats by a tail cuff sphygmomanometer, and plasma uric acid (UA) levels were measured at just before surgery (namely, at baseline) and at the end of the four weeks. Proteinuria was measured at baseline and at the end of two and four weeks. A renal micropuncture procedure along with systemic blood pressure monitoring under pentobarbital anesthesia was performed at the end of four weeks followed by morphologic evaluation of the renal preglomerular microvasculature. Food and water intake were determined daily. Systolic blood pressure (SBP) was measured by a tail-cuff sphygmomanometer using an automated system (XBP-100; Kent Scientific Co, Torrington, Conn., USA) in conscious animals. All animals were preconditioned for blood pressure measurements one week before each experiment. Plasma uric acid was quantified using a commercial kit (Diagnostic Chemicals Ltd, Charlottetown, PEI, Canada). Proteinuria was determined by turbidimetry by the method of trichloroacetic acid as described in Henry R J et al., “Turbidimetric determination of proteins with sulfosalicylic and tricholoroacetic acids”, Proc Soc Exp Biol Med 92:748-751 (1956), the contents of which are herein incorporated by reference."}, "remnant kidney (RK) rats [2]": {"test_system": "remnant kidney (RK) rats", "assay": "Plasma uric acid in remnant kidney rats", "conditions": "RK+OA rats, end of four weeks", "protocol": "Male Wistar rats (295-340 g) were used to produce rats with remnant kidney (RK) as follows. […] Rats were then assigned to one of four treatment groups: Group 1, RK control rats (n=7); Group 2, RK+febuxostat (Fx) rats (n=8); Group 3, RK+oxonic acid (OA) rats (n=6); and Group 4, RK+OA+Fx (n=10). Oxonic acid (OA) (Sigma-Aldrich, St Louis Mo., USA), administered at 750 mg/kg body weight daily by oral gavage, was given starting the day after the ⅚ nephrectomy. Beginning immediately following the surgery, febuxostat was administered in drinking water at 30 mg/L (3-4 mg/kg/day), whereas the respective controls received only drinking water (with 3.5 mg/L of NaCl added to keep an equivalent salt concentration to the Fx-containing water). All groups were treated for four weeks. Body weight (beginning just before surgery) and food and water intakes were measured daily. Systolic blood pressure, measured in conscious rats by a tail cuff sphygmomanometer, and plasma uric acid (UA) levels were measured at just before surgery (namely, at baseline) and at the end of the four weeks. Proteinuria was measured at baseline and at the end of two and four weeks. A renal micropuncture procedure along with systemic blood pressure monitoring under pentobarbital anesthesia was performed at the end of four weeks followed by morphologic evaluation of the renal preglomerular microvasculature. Food and water intake were determined daily. Systolic blood pressure (SBP) was measured by a tail-cuff sphygmomanometer using an automated system (XBP-100; Kent Scientific Co, Torrington, Conn., USA) in conscious animals. […] Plasma uric acid was quantified using a commercial kit (Diagnostic Chemicals Ltd, Charlottetown, PEI, Canada). Proteinuria was determined by turbidimetry by the method of trichloroacetic acid as described in Henry R J et al., “Turbidimetric determination of proteins with sulfosalicylic and tricholoroacetic acids”, Proc Soc Exp Biol Med 92:748-751 (1956), the contents of which are herein incorporated by reference."}, "remnant kidney (RK) rats [3]": {"test_system": "remnant kidney (RK) rats", "assay": "Micropuncture procedure to assess glomerular hemodynamics", "protocol": "Male Wistar rats (295-340 g) were used to produce rats with remnant kidney (RK) as follows. […] Rats were then assigned to one of four treatment groups: Group 1, RK control rats (n=7); Group 2, RK+febuxostat (Fx) rats (n=8); […] Oxonic acid (OA) (Sigma-Aldrich, St Louis Mo., USA), administered at 750 mg/kg body weight daily by oral gavage, was given starting the day after the 5⁄6 nephrectomy. […] All groups were treated for four weeks. Body weight (beginning just before surgery) and food and water intakes were measured daily. Systolic blood pressure, measured in conscious rats by a tail cuff sphygmomanometer, and plasma uric acid (UA) levels were measured at just before surgery (namely, at baseline) and at the end of the four weeks. Proteinuria was measured at baseline and at the end of two and four weeks. A renal micropuncture procedure along with systemic blood pressure monitoring under pentobarbital anesthesia was performed at the end of four weeks followed by morphologic evaluation of the renal preglomerular microvasculature. Animals were anesthetized with pentobarbital sodium (30 mg/kg, intraperitoneal (ip)) and placed on a thermoregulated table to maintain body temperature at 37° C. Trachea, jugular veins, femoral arteries and the left ureter were catheterized with polyethylene tubing (PE-240, PE-50, and PE-10). The left kidney was exposed, placed in a Lucite holder, sealed with agar, and covered with Ringer's solution. Mean arterial pressure (MAP) was monitored with a pressure transducer (Model p23 db; Gould, San Juan, Puerto Rico) connected to the catheter in the femoral artery and recorded on a polygraph (Grass Instruments, Quincy, Mass., USA). Blood samples were taken periodically and replaced with blood from a donor rat. Rats were maintained under euvolemic conditions by infusion of 10 mL/kg of body weight of isotonic rat plasma during surgery, followed by an infusion of 25%, polyfructosan, at 2.2 ml/h (Inutest; Fresenius Kabi, Linz, Austria). After 60 minutes, five to seven samples of proximal tubular fluid were obtained to determine flow rate and polyfructosan concentrations. Intratubular pressure under free-flow (FF) and stop-flow (SFP) conditions and peritubular capillary pressure (Pc) were measured in other proximal tubules with a servo-null device (Servo Nulling Pressure System; Instrumentation for Physiology and Medicine, San Diego, Calif., USA). Glomerular colloid osmotic pressure was estimated from protein concentrations obtained from blood of the femoral artery (Ca) and surface efferent arterioles (Ce). Polyfructosan was measured in plasma and urine samples by the anthrone-based technique described by Davidson and […] in “Simplification of the anthrone method for the determination of inulin in clearance studies,” J Lab Clin Med. 62:351-356 (1963), the contents of which are herein incorporated by reference. In brief, plasma samples were deproteinated first with trichloroacetic acid. After centrifugation, the supernatant was used for polyfructosan measurement. Polyfructosan concentrations in plasma and urine samples were assessed by the addition of anthrone reagent followed by incubation at 45° C. for 50 minutes and reading in a spectrophotometer set at wavelength of 620 nm. […] Total GFR was calculated using the following formula: GFR=(U×V)/P, where U is the polyfructosan concentration in urine, V is urine flow rate, and P is the polyfructosan concentration in plasma. The volume of fluid collected from individual proximal tubules was estimated from the length of the fluid column in a constant-bore capillary tube of known internal diameter. The concentration of tubular polyfructosan was measured by the microfluorometric method described by Vurek and Pegram in “Fluorometric method for the determination of nanogram quantities of inulin,” Anal Biochem 16:409-419 (1966), the contents of which are herein incorporated by reference. […]"}, "remnant kidney (RK) rats [4]": {"test_system": "remnant kidney (RK) rats", "assay": "Renal arteriolar morphology", "conditions": "RK rats vs RK control group", "protocol": "Male Wistar rats (295-340 g) were used to produce rats with remnant kidney (RK) as follows. […] Rats were then assigned to one of four treatment groups: Group 1, RK control rats (n=7); Group 2, RK+febuxostat (Fx) rats (n=8); Group 3, RK+oxonic acid (OA) rats (n=6); and Group 4, RK+OA+Fx (n=10). Oxonic acid (OA) (Sigma-Aldrich, St Louis Mo., USA), administered at 750 mg/kg body weight daily by oral gavage, was given starting the day after the 5⁄6 nephrectomy. Beginning immediately following the surgery, febuxostat was administered in drinking water at 30 mg/L (3-4 mg/kg/day), whereas the respective controls received only drinking water (with 3.5 mg/L of NaCl added to keep an equivalent salt concentration to the Fx-containing water). After the micropuncture study, kidneys were washed by perfusion with phosphate-buffered saline and then fixed with 4% paraformaldehyde. Renal biopsies were embedded in paraffin. Sections of 4-μm thick fixed tissue were stained with periodic acid Schiff (PAS) reagent and Masson's trichrome staining. Arteriolar morphology was assessed by indirect peroxidase immunostaining for alpha-smooth muscle actin (DAKO Corp, Carpinteria, Calif., USA). Renal sections incubated with normal rabbit serum were used as negative controls for immunostaining against alpha smooth-muscle actin. For each arteriole, the outline of the vessel and its internal lumen (excluding the endothelium) were generated using computer analysis to calculate the total medial area (outline inline), in 10 arterioles per biopsy. The media/lumen ratio was calculated by the outline/inline relationship (See, Sanchez-Lozada L G et al., “Mild hyperuricemia induces glomerular hypertension in normal rats”, Am J Physiol Renal Physiol 283:[…]-[…] (2002); Sanchez-Lozada L G, et al., “Mild hyperuricemia induces vasoconstriction and maintains glomerular hypertension in normal and remnant kidney rats,” Kidney Int 67:237-247 (2005), the contents of each are herein incorporated by reference). Quantifications were performed blinded."}, "[5]": {"conditions": "RK rats (RK + Fx or RK + OA group), end of four weeks"}},
  "data": [
    {"smiles": "O=C(O)c1nc(=O)[nH]c(=O)[nH]1", "note": "[OA, oxonic acid, reference compound]", "values": [
      {"measurement": "BW", "setting": "remnant kidney (RK) rats [1]; End of Week 4", "value": "328.5 ± 6.6", "unit": "g"},
      {"measurement": "BW Gain (from baseline)", "setting": "remnant kidney (RK) rats [1]; End of Week 4", "value": "5.5 ± 10.3", "unit": "g"},
      {"measurement": "Daily Food Intake", "setting": "remnant kidney (RK) rats [1]; Week 1", "value": "14.2 ± 2.1", "unit": "g"},
      {"measurement": "Daily Water Intake", "setting": "remnant kidney (RK) rats [1]; Week 1", "value": "44.3 ± 3.5", "unit": "mL"},
      {"measurement": "Daily Food Intake", "setting": "remnant kidney (RK) rats [1]; Week 2", "value": "19.7 ± 0.7", "unit": "g"},
      {"measurement": "Daily Water Intake", "setting": "remnant kidney (RK) rats [1]; Week 2", "value": "58.6 ± 1.4", "unit": "mL"},
      {"measurement": "Daily Food Intake", "setting": "remnant kidney (RK) rats [1]; Week 3", "value": "21.3 ± 1.0", "unit": "g"},
      {"measurement": "Daily Water Intake", "setting": "remnant kidney (RK) rats [1]; Week 3", "value": "57.2 ± 2.6", "unit": "mL"},
      {"measurement": "Daily Food Intake", "setting": "remnant kidney (RK) rats [1]; Week 4", "value": "20.7 ± 0.9", "unit": "g"},
      {"measurement": "Daily Water Intake", "setting": "remnant kidney (RK) rats [1]; Week 4", "value": "48.6 ± 3.0", "unit": "mL"},
      {"measurement": "Plasma uric acid relative to the RK control rats (in words)", "setting": "remnant kidney (RK) rats [2]", "value": "increased significantly by over two-fold"},
      {"measurement": "GFR", "setting": "remnant kidney (RK) rats [3]; [5]", "value": "0.29 ± 0.06", "unit": "mL/min"},
      {"measurement": "Kf", "setting": "remnant kidney (RK) rats [3]; [5]", "value": "0.027 ± 0.003", "unit": "nL/s · mmHg"},
      {"measurement": "PGC", "setting": "remnant kidney (RK) rats [3]; [5]", "value": "64.4 ± 1.1", "unit": "mmHg"},
      {"measurement": "QA", "setting": "remnant kidney (RK) rats [3]; [5]", "value": "170 ± 16", "unit": "nL/min"},
      {"measurement": "SNGFR", "setting": "remnant kidney (RK) rats [3]; [5]", "value": "51.3 ± 4.8", "unit": "nL/min"},
      {"measurement": "MAP", "setting": "remnant kidney (RK) rats [3]; RK rats (RK + Fx or RK + OA group), end of four weeks, under anesthesia", "value": "198 ± 10", "unit": "mmHg"},
      {"measurement": "Glomerular plasma flow (in words)", "setting": "remnant kidney (RK) rats [3]; RK+OA group", "value": "significant decrease"},
      {"measurement": "GFR (in words)", "setting": "remnant kidney (RK) rats [3]; RK+OA rats vs RK control group", "value": "similarly low as in the RK control group"},
      {"measurement": "Single-nephron GFR (in words)", "setting": "remnant kidney (RK) rats [3]; RK+OA rats vs RK control group", "value": "lower compared to the RK control group"},
      {"measurement": "Afferent resistance (in words)", "setting": "remnant kidney (RK) rats [3]; RK+OA rats vs RK control rats", "value": "significantly elevated"},
      {"measurement": "Thickening of preglomerular vessels / afferent arteriole (in words)", "setting": "remnant kidney (RK) rats [4]", "value": "developed additional thickening of the afferent arteriole"}
    ]}
  ]
}
